Measurements reported in patent US10770169B2, “Method of providing a treatment to a subject based on a dynamic pathway map” (THE REGENTS OF THE UNIVERSITY OF CALIFORNIA, priority 2010, dated 2020).

Assays:
[1] = test system: panel of 55 breast cancer cell lines; test: Cell growth inhibition assay (Cell Titer Glo, 72 h, 9 doses; GI50, TGI, LC50); assay type: cell-based, human; conditions: value is the negative log10 of mol/L
[2] = test system: luminal, basal, claudin-low and ERBB2AMP breast cancer cell lines; test: Associations of clinically relevant subtypes and response (non-parametric ANOVA or t-test on GI50 ranks); assay type: cell-based, human; conditions: Table 6; most sensitive subtype, FDR p<0.20
Method in brief: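 GI50 values were compared between cell-line subtype groups by non-parametric ANOVA or t-test on ranks. P-values from three test sets were combined and FDR-corrected. Significant three-group effects were followed by post-hoc comparison of each group against all others, and FDR p<0.20 counted as significant.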

CC(/C=C/C(=O)NO)=C\[C@@H](C)C(=O)c1ccc(N(C)C)cc1 [Trichostatin A]
GI50 ([1]; 600MPE cell line, censored GI50 values): 5.18 | GI50 ([1]; AU565 cell line, censored GI50 values): 5.43 | GI50 ([1]; BT20 cell line, censored GI50 values): 4.81 | GI50 ([1]; BT474 cell line, censored GI50 values): 5.00 | GI50 ([1]; BT483 cell line, censored GI50 values): 5.00 | GI50 ([1]; BT549 cell line, censored GI50 values): 5.13 | GI50 ([1]; CAMA1 cell line, censored GI50 values): 5.57 | GI50 ([1]; HCC38 cell line, censored GI50 values): 5.22 | GI50 ([1]; HCC70 cell line, censored GI50 values): 4.84 | GI50 ([1]; HCC202 cell line, censored GI50 values): 6.04 | GI50 ([1]; HCC1143 cell line, censored GI50 values): 4.77 | GI50 ([1]; HCC1187 cell line, censored GI50 values): 5.32 | GI50 ([1]; HCC1395 cell line, censored GI50 values): 4.50 | GI50 ([1]; HCC1419 cell line, censored GI50 values): 4.85 | GI50 ([1]; HCC1428 cell line, censored GI50 values): 5.73 | GI50 ([1]; HCC1500 cell line, censored GI50 values): 4.82 | GI50 ([1]; HCC1806 cell line, censored GI50 values): 4.97 | GI50 ([1]; HCC1937 cell line, censored GI50 values): 4.82 | GI50 ([1]; HCC1954 cell line, censored GI50 values): 4.95 | GI50 ([1]; HCC2185 cell line, censored GI50 values): 4.79 | GI50 ([1]; HCC3153 cell line, censored GI50 values): 4.62 | GI50 ([1]; LY2 cell line, censored GI50 values): 4.86 | GI50 ([1]; MCF7 cell line, censored GI50 values): 5.16 | GI50 ([1]; MDAMB134VI cell line, censored GI50 values): 5.17 | GI50 ([1]; MDAMB157 cell line, censored GI50 values): 4.68 | GI50 ([1]; MDAMB175VII cell line, censored GI50 values): 5.23 | GI50 ([1]; MDAMB231 cell line, censored GI50 values): 5.26 | GI50 ([1]; MDAMB361 cell line, censored GI50 values): 5.09 | GI50 ([1]; MDAMB415 cell line, censored GI50 values): 4.90 | GI50 ([1]; MDAMB436 cell line, censored GI50 values): 4.67 | GI50 ([1]; MDAMB453 cell line, censored GI50 values): 5.23 | GI50 ([1]; MDAMB468 cell line, censored GI50 values): 4.85 | GI50 ([1]; SKBR3 cell line, censored GI50 values): 5.21 | GI50 ([1]; SUM52PE cell line, censored GI50 values): 5.57 | GI50 ([1]; SUM149PT cell line, censored GI50 values): 5.14 | GI50 ([1]; SUM159PT cell line, censored GI50 values): 5.23 | GI50 ([1]; SUM185PE cell line, censored GI50 values): 4.76 | GI50 ([1]; SUM225CWN cell line, censored GI50 values): 4.85 | GI50 ([1]; SUM1315MO2 cell line, censored GI50 values): 4.31 | GI50 ([1]; T47D cell line, censored GI50 values): 5.44 | GI50 ([1]; UACC812 cell line, censored GI50 values): 5.04 | GI50 ([1]; UACC893 cell line, censored GI50 values): 5.54 | GI50 ([1]; ZR75B cell line, censored GI50 values): 5.30 | GI50 ([1]; ZR751 cell line, censored GI50 values): 4.74 | GI50 ([1]; cell line 600MPE): 5.18 | GI50 ([1]; cell line AU565): 5.43 | GI50 ([1]; cell line BT20): 4.81 | GI50 ([1]; cell line BT474): 5.00 | GI50 ([1]; cell line BT483): 5.00 | GI50 ([1]; cell line BT549): 5.13 | GI50 ([1]; cell line CAMA1): 5.57 | GI50 ([1]; cell line HCC38): 5.22 | GI50 ([1]; cell line HCC70): 4.84 | GI50 ([1]; cell line HCC202): 6.04 | GI50 ([1]; cell line HCC1143): 4.77 | GI50 ([1]; cell line HCC1187): 5.32 | GI50 ([1]; cell line HCC1395): 4.50 | GI50 ([1]; cell line HCC1419): 4.85 | GI50 ([1]; cell line HCC1428): 5.73 | GI50 ([1]; cell line HCC1500): 4.82 | GI50 ([1]; cell line HCC1806): 4.97 | GI50 ([1]; cell line HCC1937): 4.82 | GI50 ([1]; cell line HCC1954): 4.95 | GI50 ([1]; cell line HCC2185): 4.79 | GI50 ([1]; cell line HCC3153): 4.62 | GI50 ([1]; cell line LY2): 4.86 | GI50 ([1]; cell line MCF7): 5.16 | GI50 ([1]; cell line MDAMB134V): 5.17 | GI50 ([1]; cell line MDAMB157): 4.68 | GI50 ([1]; cell line MDAMB175V): 5.23 | GI50 ([1]; cell line MDAMB231): 5.26 | GI50 ([1]; cell line MDAMB361): 5.09 | GI50 ([1]; cell line MDAMB415): 4.90 | GI50 ([1]; cell line MDAMB436): 4.67 | GI50 ([1]; cell line MDAMB453): 5.23 | GI50 ([1]; cell line MDAMB468): 4.85 | GI50 ([1]; cell line SKBR3): 5.21 | GI50 ([1]; cell line SUM52PE): 5.57 | GI50 ([1]; cell line SUM149PT): 5.14 | GI50 ([1]; cell line SUM159PT): 5.23 | GI50 ([1]; cell line SUM185PE): 4.76 | GI50 ([1]; cell line SUM225CWN): 4.85 | GI50 ([1]; cell line SUM1315MO): 4.31 | GI50 ([1]; cell line T47D): 5.44 | GI50 ([1]; cell line UACC812): 5.04 | GI50 ([1]; cell line UACC893): 5.54 | GI50 ([1]; cell line ZR75B): 5.30 | GI50 ([1]; cell line ZR751): 4.74 | Subtype specificity [2]: Luminal
